Drawing on ChEMBL document CHEMBL1158929, “Tolytoxin and new scytophycins from three species of Scytonema” (J Nat Prod, 1990), this text covers IC50, Activity and MIC for 9 molecules.

In brackets after ≈: the same amount, converted by molar mass. Activity calls are given as the source filed them. No cut-off for these calls is given here.

One test relates to KB. Nature of the test: Cytotoxicity against human KB cells. The class given is functional, cell-based.
A further test concerns Saccharomyces cerevisiae. Nature of the test: Antifungal activity against Saccharomyces cerevisiae by agar diffusion assay. It counts as functional, organism-based.
The next test has as its system Candida albicans. As to the kind of experiment: Antifungal activity against Candida albicans by agar diffusion assay. The class given is functional, organism-based.
A further test has as its system Penicillium chrysogenum. Nature of the test: Antifungal activity against Penicillium notatum by agar diffusion assay. The class given is functional, organism-based.
The next test relates to Aspergillus oryzae. Nature of the test: Antifungal activity against Aspergillus oryzae by agar diffusion assay. It counts as functional, organism-based.
The subject of another test is LoVo. Nature of the test: Cytotoxicity against human LoVo cells. It counts as functional.

Regarding `CO[C@H]([C@H](C)/C=C/N(C)C=O)[C@@H](C)C(=O)CC[C@H](C)[C@H](O)[C@H](C)[C@H]1OC(=O)/C=C/C(C)=C/C[C@H](O)C[C@@H]2C=CC[C@@H](C[C@H](OC)[C@@]3(CO3)[C@@H](OC)C[C@@H](OC)[C@@H]1C)O2` [SCYTOPHYCIN B], the IC50 with KB worked out at 1 ng/mL (≈ 1.22 nM).
With `CO[C@H]([C@H](C)/C=C/N(C)C=O)[C@@H](C)C(=O)CC[C@H](C)[C@H](O)[C@H](C)[C@H]1OC(=O)/C=C/C(C)=C/C[C@H](O)C[C@@H]2C=CC[C@@H](C[C@H](OC)[C@@H](C)[C@@H](OC)C[C@@H](O)[C@@H]1C)O2`, the outcome in the test with Saccharomyces cerevisiae, in the test on Candida albicans, in the test with Penicillium chrysogenum and in the test on Aspergillus oryzae was Active. In addition, half-maximal inhibition in the test with KB (IC50) was put at 1 ng/mL (≈ 1.26 nM).
In the case of `CO[C@H]([C@H](C)/C=C/N(C)C=O)[C@@H](C)C(=O)CC[C@H](C)[C@H](O)[C@H](C)[C@H]1OC(=O)/C=C/C(C)=C/C[C@H](O)C[C@@H]2C=CC[C@@H](C[C@H](OC)[C@](C)(O)[C@@H](OC)C[C@@H](OC)[C@@H]1C)O2` [SCYTOPHYCIN D], in the test with KB, half-maximal inhibition (IC50) was put at 10 ng/mL (≈ 12.2 nM).
Same read-out and setting: under `CO[C@H]([C@H](C)/C=C/N(C)C=O)[C@@H](C)C(=O)CC[C@H](C)[C@H](O)[C@H](C)[C@H]1OC(=O)/C=C/C(C)=C/C[C@H](O)C[C@@H]2C=CC[C@@H](C[C@H](OC)[C@@H](C)[C@@H](OC)C[C@@H](OC)[C@@H]1C)O2` [SCYTOPHYCIN C] stands 10 ng/mL (≈ 12.4 nM).
As for `CO[C@H]([C@H](C)/C=C/N(C)C=O)[C@@H](C)C(=O)CC[C@H](C)[C@H](O)[C@H](C)[C@H]1OC(=O)/C=C/C(C)=C/[C@H](O)[C@H](OC)C[C@@H]2C=CC[C@@H](C[C@H](OC)[C@@]3(CO3)[C@@H](OC)C[C@@H](OC)[C@@H]1C)O2` [TOLYTOXIN], the result with Saccharomyces cerevisiae, in the test with Candida albicans, with Penicillium chrysogenum and in the test with Aspergillus oryzae was Active. This molecule displayed an IC50 with KB of 1 ng/mL (≈ 1.18 nM).
Take `CO[C@H]([C@H](C)/C=C/N(C)C=O)[C@@H](C)C(O)CC[C@H](C)[C@H](O)[C@H](C)[C@H]1OC(=O)/C=C/C(C)=C/C[C@H](O)C[C@@H]2C=CC[C@@H](C[C@H](OC)[C@@]3(CO3)[C@@H](OC)C[C@@H](OC)[C@@H]1C)O2` (stereo partly specified) [SCYTOPHYCIN A]: the IC50 with KB turned out to be 1 ng/mL (≈ 1.22 nM).
For the molecule `CO[C@H]([C@H](C)/C=C/N(C)C=O)[C@@H](C)C(=O)CC[C@H](C)[C@H](O)[C@H](C)[C@H]1OC(=O)/C=C/C(C)=C/[C@H](O)[C@H](OC)C[C@@H]2C=CC[C@@H](C[C@H](OC)[C@@H](CO)[C@@H](OC)C[C@@H](OC)[C@@H]1C)O2`, the result in the test with Saccharomyces cerevisiae, in the test on Candida albicans, with Penicillium chrysogenum and in the test on Aspergillus oryzae was Active. Also, in the test with KB, the IC50 was 1 ng/mL (≈ 1.17 nM).
With `CO[C@H]([C@H](C)/C=C/N(C)C=O)[C@@H](C)C(=O)CC[C@H](C)[C@H](O)[C@H](C)[C@H]1OC(=O)/C=C/C(C)=C/[C@H](O)[C@H](O)C[C@@H]2C=CC[C@@H](C[C@H](OC)[C@@]3(CO3)[C@@H](OC)C[C@@H](OC)[C@@H]1C)O2` [6-HYDROXYSCYTOPHYCIN B], the outcome with Saccharomyces cerevisiae, with Candida albicans, in the test with Penicillium chrysogenum and in the test with Aspergillus oryzae was Active. This molecule displayed an IC50 in the test on KB of 1 ng/mL (≈ 1.2 nM).
`CO[C@H]([C@H](C)/C=C/N(C)C=O)[C@@H](C)C(=O)CC[C@H](C)[C@H](O)[C@H](C)[C@H]1OC(=O)/C=C/C(C)=C/C[C@H](O)C[C@@H]2C=CC[C@@H](C[C@H](OC)[C@@H](CO)[C@@H](OC)C[C@@H](OC)[C@@H]1C)O2` [SCYTOPHYCIN E]: the MIC against LoVo was 10 ng/mL (≈ 12.2 nM). Moreover, in the test on KB, the half-maximal inhibitory concentration (IC50) came out at 10 ng/mL (≈ 12.2 nM).
